This note sets out measurements from patent publication US11858959B2, “Glycyrrhetinic acid derivatives for use in treating hyperkalemia” (ARDELYX, INC., priority 2019, dated 2024).

The assay concerns the target HSD2 (Homo sapiens (Human), UniProt P80365). The assay can be described thus: HSD2 activity: cortisol level (HTRF) in human descending colon organoid-derived monolayer cultures. Background: In TR-FRET formats the signal depends on donor and acceptor labels being close together.

A value given as a limit tells only on which side of the number the result lay.

Sequence of HSD2 (P80365 whole entry): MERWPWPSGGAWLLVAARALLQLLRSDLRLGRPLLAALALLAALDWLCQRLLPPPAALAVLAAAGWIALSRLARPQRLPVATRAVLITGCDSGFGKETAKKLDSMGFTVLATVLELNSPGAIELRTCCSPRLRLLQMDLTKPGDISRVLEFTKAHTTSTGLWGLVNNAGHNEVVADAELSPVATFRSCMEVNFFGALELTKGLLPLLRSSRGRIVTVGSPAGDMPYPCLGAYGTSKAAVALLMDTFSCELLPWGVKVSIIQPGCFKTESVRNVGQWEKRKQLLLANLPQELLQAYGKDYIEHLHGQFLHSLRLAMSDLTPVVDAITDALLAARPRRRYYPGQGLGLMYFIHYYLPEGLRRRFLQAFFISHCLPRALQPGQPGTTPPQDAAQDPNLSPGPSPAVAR
Experimental: Human descending colon epithelial stem cells were cultured as 3D organoids in accordance with Sato et al Gastroenterology. […] Cultures were differentiated using SBM containing ENRA and 30 nM aldosterone on day 3, and cultures were used for assay on day 6 or 7. Compounds were diluted in DMSO and serial dilutions prepared by titrating in DMSO. Compounds were then diluted into DMEM/F12. Transwell plates containing descending colon cultures were washed twice with DMEM/F12 and compound was added to the apical compartment. Cells were incubated with test compound for 30 minutes at 37° C., 5% CO2 to equilibrate across the cell membrane. A second compound plate was prepared in which the serially diluted compounds in DMSO were diluted into DMEM/F12 containing 40 nM cortisol. Following the 30 minute pre-incubation step, the apical media was aspirated and compounds diluted in DMEM/F12 with 40 nM cortisol were added to the apical side of the transwell. The plate was then incubated for four hours at 37° C., 5% CO2. Cortisol levels were measured using a cortisol HTRF assay kit as described by the manufacturer (Cisbio). Concentration-response curves were then plotted and IC50 (and pIC50) values were determined using least squares non-linear regression.
Inhibition of HSD2 activity as measured by the inhibition of the conversion of cortisone to cortisol.

The term IC50 denotes the concentration needed to halve the response being measured. As to `COCC(=O)O[C@H]1CC[C@@]2(C)[C@@H](CC[C@]3(C)[C@@H]2C(=O)C=C2[C@@H]4C[C@@](C)(C(=O)O)CC[C@]4(C)CC[C@]23C)[C@]1(C)C(=O)O` [(2S,4aS,6aS,6bR,8aR,9S,10S,12aS,12bR,14bR)-10-[(2-methoxyacetyl)oxy]-2,4a,6a,6b,9,12a-hexamethyl-13-oxo-1,2,3,4,4a,5,6,6a,6b,7,8,8a,9,10,11,12,12a,12b,13,14b-icosahydropicene-2,9-dicarboxylic acid], the IC50 is > 10 µM.
Still for that read-out and setting: with `COCO[C@H]1CC[C@@]2(C)[C@@H](CC[C@]3(C)[C@@H]2C(=O)C=C2[C@@H]4C[C@@](C)(C(=O)O)CC[C@]4(C)CC[C@]23C)[C@]1(C)C(=O)OCc1oc(=O)oc1C(C)C` [Compound 258-2, (2S,4aS,6aS,6bR,8aR,9S,10S,12aS,12bR,14bR)-9-(((5-Isopropyl-2-oxo-1,3-dioxol-4-yl)methoxy)carbonyl)-10-(methoxymethoxy)-2,4a,6a,6b,9,12a-hexamethyl-13-oxo-1,2,3,4,4a,5,6,6a,6b,7,8,8a,9,10,11,12,12a,12b,13,14b-icosahydropicene-2-carboxylic Acid] the figure was 0.126 µM; with `CN(C)CC(=O)O[C@H]1CC[C@@]2(C)[C@@H](CC[C@]3(C)[C@@H]2C(=O)C=C2[C@@H]4C[C@@](C)(C(=O)O)CC[C@]4(C)CC[C@]23C)[C@]1(C)C(=O)O` [(2S,4aS,6aS,6bR,8aR,9S,10S,12aS,12bR,14bR)-10-{[2-(dimethylamino)acetyl]oxy}-2,4a,6a,6b,9,12a-hexamethyl-13-oxo-1,2,3,4,4a,5,6,6a,6b,7,8,8a,9,10,11,12,12a,12b,13,14b-icosahydropicene-2,9-dicarboxylic acid], > 10 µM; with `CCC(=O)O[C@H]1CC[C@]2(C)[C@H]3C(=O)C=C4[C@@H]5C[C@@](C)(C(=O)O)CC[C@]5(C)CC[C@@]4(C)[C@]3(C)CC[C@H]2[C@]1(C)N` [(2S,4aS,6aS,6bR,8aR,9S,10S,12aS,12bR,14bR)-9-amino-2,4a,6a,6b,9,12a-hexamethyl-13-oxo-10-(propanoyloxy)-1,2,3,4,4a,5,6,6a,6b,7,8,8a,9,10,11,12,12a,12b,13,14b-icosahydropicene-2-carboxylic acid], 0.398 µM.
Same read-out and setting: with `C[C@]1(C(=O)O)CC[C@]2(C)CC[C@]3(C)C(=CC(=O)[C@@H]4[C@@]5(C)CC[C@H](OC(=O)CS(C)(=O)=O)[C@@](C)(C(=O)O)[C@@H]5CC[C@]43C)[C@@H]2C1` [(2S,4aS,6aS,6bR,8aR,9S,10S,12aS,12bR,14bR)-10-[(2-methanesulfonylacetyl)oxy]-2,4a,6a,6b,9,12a-hexamethyl-13-oxo-1,2,3,4,4a,5,6,6a,6b,7,8,8a,9,10,11,12,12a,12b,13,14b-icosahydropicene-2,9-dicarboxylic acid] the figure was > 10 µM.
Still for that read-out and setting: with `C[C@]1(C(=O)O)CC[C@]2(C)CC[C@]3(C)C(=CC(=O)[C@@H]4[C@@]5(C)CC[C@H](O)[C@@](C)(N)[C@@H]5CC[C@]43C)[C@@H]2C1` [(2S,4aS,6aS,6bR,8aR,9S,10S,12aS,12bR,14bR)-9-amino-10-hydroxy-2,4a,6a,6b,9,12a-hexamethyl-13-oxo-1,2,3,4,4a,5,6,6a,6b,7,8,8a,9,10,11,12,12a,12b,13,14b-icosahydropicene-2-carboxylic acid] the figure was > 10 µM; with `C[C@]1(C(=O)O)CC[C@]2(C)CC[C@]3(C)C(=CC(=O)[C@@H]4[C@@]5(C)CC[C@H](OC(=O)NCCN6CCOCC6)[C@@](C)(C(=O)O)[C@@H]5CC[C@]43C)[C@@H]2C1` [(2S,4aS,6aS,6bR,8aR,9S,10S,12aS,12bR,14bR)-2,4a,6a,6b,9,12a-hexamethyl-10-({[2-(morpholin-4-yl)ethyl]carbamoyl}oxy)-13-oxo-1,2,3,4,4a,5,6,6a,6b,7,8,8a,9,10,11,12,12a,12b,13,14b-icosahydropicene-2,9-dicarboxylic acid], > 10 µM; with `CCC(=O)O[C@H]1CC[C@@]2(C)[C@@H](CC[C@]3(C)[C@@H]2C(=O)C=C2[C@@H]4C[C@@](C)(C(=O)O)CC[C@]4(C)CC[C@]23C)[C@]1(C)NC(=O)OCc1oc(=O)oc1CC` [Compound 318-1, (2S,4aS,6aS,6bR,8aR,9S,10S,12aS,12bR,14bR)-9-((((5-ethyl-2-oxo-1,3-dioxol-4-yl)methoxy)carbonyl)amino)-2,4a,6a,6b,9,12a-hexamethyl-13-oxo-10-(propionyloxy)-1,2,3,4,4a,5,6,6a,6b,7,8,8a,9,10,11,12,12a,12b,13,14b-icosahydropicene-2-carboxylic Acid], 0.0355 µM.
Usually pIC50 stands for −log10 of the IC50, conventionally taken in molar units. As for “2-(3-((1-PEG5K-1H-1,2,3-triazol-4-yl)methoxy)-4-nitrobenzyl) 9-((5-methyl-2-oxo-1,3-dioxol-4-yl)methyl)(2S,4aS,6aS,6bR,8aR,9S,10S,12aS,12bR,14bR)-10-((2,5,8,11-tetraoxatetradecan-14-oyl)oxy)-2,4a,6a,6b,9,12a-hexamethyl-13-oxo-1,2,3,4,4a,5,6,6a,6b,7,8,8a,9,10,11,12,12a,12b,13,14b-icosahydropicene-2,9-dicarboxylate [Compound 605-2]”, the pIC50 (HSD2 inhibition in human descending colon cultures, 30 min pre-incubation, then 40 nM cortisol for four hours, cortisol HTRF) amounted to 6.9.
In the case of `COC(=O)N[C@H]1CC[C@@]2(C)[C@@H](CC[C@]3(C)[C@@H]2C(=O)C=C2[C@@H]4C[C@@](C)(C(=O)O)CC[C@]4(C)CC[C@]23C)[C@]1(C)C(=O)O` [(2S,4aS,6aS,6bR,8aR,9S,10S,12aS,12bR,14bR)-10-[(methoxycarbonyl)amino]-2,4a,6a,6b,9,12a-hexamethyl-13-oxo-1,2,3,4,4a,5,6,6a,6b,7,8,8a,9,10,11,12,12a,12b,13,14b-icosahydropicene-2,9-dicarboxylic acid], the half-inhibitory concentration (IC50) was > 10 µM.
Same read-out and setting: with `C[C@]1(C(=O)O)CC[C@]2(C)CC[C@]3(C)C(=CC(=O)[C@@H]4[C@@]5(C)CC[C@H](O)[C@@](C)(COCC(=O)O)C5CC[C@]43C)[C@@H]2C1` (stereo partly drawn) [(2S,4aS,6aS,6bR,9R,10S,12aS,12bR,14bR)-9-[(carboxymethoxy)methyl]-10-hydroxy-2,4a,6a,6b,9,12a-hexamethyl-13-oxo-1,2,3,4,4a,5,6,6a,6b,7,8,8a,9,10,11,12,12a,12b,13,14b-icosahydropicene-2-carboxylic acid] the figure was > 10 µM.
